Measured values taken from patent US20110039763A1, “TARGETED ANTIMICROBIAL MOIETIES” (C3 JIAN, INC., priority 2009, published 2011).
“Also recorded” adds a separate entry of the source. Square brackets hold non-standard residues; d marks the D form. Ends that are not written are not given here. dOrn = NCCC[C@@H](N)C(=O)O

System: microorganisms
Experiment: Targeting peptide binding to target microorganisms (Tables 3, 10, 12)
Settings: for Target(s): microorganism(s) the targeting peptide binds, preferably 1x PBS
[1] = binding in aqueous buffers that varied with peptide solubility
[2] = binding in aqueous buffers varied with peptide solubility

| Substance | Target(s) [1] | other results |
| --- | --- | --- |
| 1T-270 (VHEFDIQKILQNR; Peptide with targeting and/or antimicrobial activity) | F. nucleatum; also recorded: S. mutans; also recorded: S. oralis; also recorded: S. sanguinis | – |
| 1T-272 (QLAPIDKQLKAVKKIAFYESESTAAKAVTVA; Peptide with targeting and/or antimicrobial activity) | F. nucleatum; also recorded: S. mutans; also recorded: S. oralis; also recorded: S. sanguinis | – |
| 1T-273 (YNEPNYKWLESYKIYKQRCEDRTGMYYTEET; Peptide with targeting and/or antimicrobial activity) | F. nucleatum; also recorded: P. gingivalis; also recorded: T. denticola; also recorded: S. mitis; also recorded: S. mutans; also recorded: S. oralis | – |
| 1T-274 (ETTTEINAIKLHRIKQRSPQGTRRVN; Peptide with targeting and/or antimicrobial activity) | F. nucleatum; also recorded: S. mutans; also recorded: S. oralis; also recorded: S. sanguinis | – |
| 1T-282 (ISLVFPAYT; Peptide with targeting and/or antimicrobial activity) | F. nucleatum; also recorded: P. gingivalis; also recorded: S. gordonii; also recorded: S. mitis; also recorded: S. mutans; also recorded: S. oralis; also recorded: S. salivarious; also recorded: S. sanguinis | – |
| 1T-286 (LGFFNNKADLVKADTERDNRMSSLKIKDL; Peptide with targeting and/or antimicrobial activity) | S. sanguinis | – |
| 1T-287 (KGYPLPFQYRLNNH; Peptide with targeting and/or antimicrobial activity) | P. gingivalis; also recorded: T. denticola; also recorded: S. gordonii; also recorded: S. mitis; also recorded: S. mutans; also recorded: S. oralis; also recorded: S. salivarious; also recorded: S. sanguinis | – |
| 1T-288 (RWVGGEPSADIYLSAKDTKT; Peptide with targeting and/or antimicrobial activity) | F. nucleatum; also recorded: S. gordonii; also recorded: S. salivarious; also recorded: S. sanguinis | – |
| 1T-289 (EPSADIYLSAKDTKT; Peptide with targeting and/or antimicrobial activity) | F. nucleatum; also recorded: P. gingivalis; also recorded: S. gordonii; also recorded: S. mitis; also recorded: S. mutans; also recorded: S. oralis; also recorded: S. sanguinis | – |
| 1T-291 (DMKIIKLYIKILSFLFIKYCNKKLNSVKLKA; Peptide with targeting and/or antimicrobial activity) | A. naeslundii; also recorded: F. nucleatum; also recorded: P. gingivalis; also recorded: T. denticola; also recorded: S. mitis; also recorded: S. mutans; also recorded: S. oralis | – |
| 1T-294 (YDKIADGVFKIGKRGVL; Peptide with targeting and/or antimicrobial activity) | T. denticola | – |
| 1T-295 (KYKLKKIIL; Peptide with targeting and/or antimicrobial activity) | S. mitis; also recorded: S. salivarious; also recorded: S. sanguinis | – |
| 1T-297 (RSLRLNNALTKLPKLWYNRIKEAFYAYNDYDK; Peptide with targeting and/or antimicrobial activity) | A. naeslundii; also recorded: F. nucleatum; also recorded: T. denticola; also recorded: S. mitis; also recorded: S. mutans; also recorded: S. oralis | – |
| 1T-301 (SKLPRVLDASLKL; Peptide with targeting and/or antimicrobial activity) | F. nucleatum; also recorded: S. gordonii; also recorded: S. sanguinis | – |
| 1T-304 (STAGEASRRTASEASRRTAAKLRG; Peptide with targeting and/or antimicrobial activity) | P. gingivalis | – |
| AIEGVIKKGACFKLLRHEMF [PF-167] | – | Target(s) [2]: S. epidermidis and E. coli and C. albicans and MRSA and C. jeikeium and C. jejuni |
| CHA0 (D[dOrn]KTAA[dOrn]K; not fully specified (bridges)) | P. fluorescens | – |
| DAANEA-GGG [BL-1] | – | bacterial binding (data not shown): no bacterial binding |
| HIKETR (Peptide with targeting and/or antimicrobial activity) [PF-222] | – | Target(s) [2]: S. epidermidis |
